Laboratory results taken from patent US10898570B2, “Combination therapy with an anti-HER2 antibody-drug conjugate and a Bcl-2 inhibitor” (Genentech, Inc., priority 2015, dated 2021).

Legend:
[1] = cited from earlier work
[2] = test system: HER2+ MDA-MB-361 breast cancer cells (T-DM1 naive); test: caspase 3/7 activation luminescent in vitro apoptosis assay; type: cell-based; conditions: 24 hours; five concentrations of GDC-0199, 9 concentrations of T-DM1
Protocol: (§1) In the present experiment, caspase 3/7 activation luminescence assay was performed using the Caspase-Glo® reagent (Promega) essentially following manufacturer's instructions. Assays were performed in the same manner as the viability assays except that drug incubation times were 24 hours and Caspase-Glo 3/7 (Promega) was used to measure apoptosis.
(§2) Caspase 3/7 activation luminescence assay was performed as described in Example 3.

[3] = test system: HER2+ HCC1569 breast cancer cells (T-DM1 naive); test: as above; type: cell-based; conditions: 24 hours; five concentrations of GDC-0199, 9 concentrations of T-DM1
Protocol: as §1, §2

[4] = test system: Bcl-2; conditions: T-DM1 1.25 μg/mL; cell lines BT-474, MDA_361 and ZR-75-30
Protocol: Western blot analysis was performed as follows: Cells were lysed in corrected FLAG elution buffer (CFEB) (19.17 mM Tris (pH 7.5), 916.7 μM MgCl2, 92.5 mM NaCl and 0.1% Triton X-100) with protease and phosphatase inhibitors (Roche); in some cases 6 M urea was added. Cleared lysates were quantitated and equal amounts of proteins were reduced, alkylated, separated by SDS-PAGE, and transferred onto PVDF membranes (Invitrogen) following standard procedures. Western blotting was performed as recommended by the respective antibody manufacturers.
The effect of treatment with T-DM1 (1.25 μg/mL) alone or in combination with GDC-0199 (1.25 μM) was studied on various T-DM1 naïve HER2+ breast cancer cell lines.

[5] = test system: T-DM1-resistant KPL-4 (HER2+) breast cancer cells; test: caspase 3/7 activation luminescence assay (Caspase-Glo); type: cell-based, human; conditions: 48 hours; T-DM1 0.1 or 1 μg/mL; GDC-0199 1, 2.5 or 5 μM
Protocol: (§3) In the present experiment, caspase 3/7 activation luminescence assay was performed using the Caspase-Glo® reagent (Promega) essentially following manufacturer's instructions. […]

[6] = test system: KPL-4 parental cells; test: as above; type: cell-based, human
Protocol: as §3

[7] = weekly dosing with 2.4 mg/kg; cited from earlier work
[8] = test system: Clone #17 T-DM1 resistant KPL-4 human breast cancer cell line; test: caspase 3/7 activation luminescence assay (Caspase-Glo); type: cell-based; conditions: 48 hours; 1 ug/mL T-DM1 alone or with indicated doses of GDC-0199
Protocol: as §3

[9] = test system: Clone #17 T-DM1 resistant KPL-4 human breast cancer xenografts; test: xenograft study, tumor volume; type: in vivo, SCID beige mice
Source text: For all xenograft studies, three million T-DM1-resistant KPL-4 breast cancer cells were implanted in #2/3 mammary fat pads of female SCID-beige mice. […] The results of these xenograft studies for xenografts of various clones of the T-DM1-resistant KPL-4 breast cancer cells are shown in FIGS. 5B and 6C.

COc1cc2cc(c1Cl)N(C)C(=O)C[C@H](OC(=O)[C@H](C)N(C)C(C)=O)[C@]1(C)O[C@H]1[C@H](C)[C@@H]1C[C@@](O)(NC(=O)O1)[C@H](OC)/C=C/C=C(\C)C2 [maytansine]
dose-limiting toxicity (DLT) ([1]; 2.0 mg/m2 every 3 weeks, single dose or 3 consecutive days): gastrointestinal | activity in the clinic ([1]; at doses that could be safely delivered): modest

trastuzumab-MCC-DM1 [T-DM1]
caspase 3/7 activity (apoptosis) [2]: caspases 3 and 7 activation | caspase 3/7 activity (apoptosis) [3]: does not induce apoptosis | phosphorylation of Bcl-2 after treatment (Western blot) [4]: phosphorylation of Bcl-2 | activation of caspases 3 and 7 (apoptosis) [5]: minimal effect | activation of caspases 3 and 7 (apoptosis) ([6]; 24 hours of drug treatment): no effect | activation of caspases 3 and 7 (apoptosis) ([6]; 48 hours, T-DM1 0.1 or 1 μg/mL, GDC-0199 1, 2.5 or 5 μM): robust activation | anti-tumor activity [7]: anti-tumor activity | activation of caspases 3 and 7 (apoptosis) [8]: minimal effect | tumor growth (tumor volume) ([9]; T-DM1 5 mg/kg administered once, GDC-0199 100 mg/kg qd×21): no activity

CC1(C)CCC(CN2CCN(c3ccc(C(=O)NS(=O)(=O)c4ccc(NCC5CCOCC5)c([N+](=O)[O-])c4)c(Oc4cnc5[nH]ccc5c4)c3)CC2)=C(c2ccc(Cl)cc2)C1 [GDC-0199, 2-(1H-pyrrolo[2,3-b]pyridin-5-yloxy)-4-(4-((2-(4-chlorophenyl)-4,4-dimethylcyclohex-1-enyl)methyl)piperazin-1-yl)-N-(3-nitro-4-((tetrahydro-2H-pyran-4-yl)methylamino)phenylsulfonyl)benzamide]
tumor growth (tumor volume) ([9]; 100 mg/kg): no activity
